The values below come from patent US11008619B2, “Diagnostic markers for platelet function and methods of use” (Duke University, priority 2012, dated 2021).

In test [1] the test system is COX-1 dependent platelet function. Briefly: Arachidonic acid-induced platelet aggregation (light transmittance aggregometry), with and without in vitro aspirin. The class given is in vivo, human. How it is done: (§1) Platelet function studies. Before each visit, subjects were asked to fast and to refrain from tobacco (during the preceding 24 hrs) and alcohol or intensive exercise on the day of testing. Phlebotomy was performed after 10 minutes of resting supine with minimal trauma or stasis at the venipuncture site using a 21-gauge needle into 3.2% sodium citrate tubes. The focus of these studies was around NCDPF and thus, the NCDPF assays were defined as the following: PFA100, and epinephrine, ADP, and collagen induced LTA. […] Serum thromboxane B2 and AA induced aggregation were chosen as measures of COX-1 activity and also added in vitro aspirin to the AA aggregation assay to further assess for any evidence of unsuppressed COX-1 activity.
(§2) Light transmittance aggregometry. Light transmittance aggregometry (LTA) was performed as previously described (Born (1964) Nature 202:95-96) using the following agonists: arachidonic acid (AA, Chrono-log, 0.5 mM), epinephrine (Chrono-Log, 10, 1, and 0.5 μM), ADP (Chrono-Log, 10, 5, and 1 μM), and collagen (Chrono-Log, 5 and 2 μg/ml). The area under the LTA curve (AUC) was chosen as the primary measure of aggregation because the AUC captures several features of the aggregometry curve that are each sensitive to the effects of aspirin: slope, maximal aggregation, and final aggregation. To standardize AUC measurements across individuals and visits the test duration was fixed at 12 minutes for epinephrine and six minutes for collagen, AA, and ADP.

Test [2] relates to non COX-1 dependent platelet function (NCDPF). Briefly: In vitro addition of aspirin to PRP, epinephrine/ADP/collagen induced light transmittance aggregometry. The class given is cell-based, human. The note with it: n=5 HV2 and n=15 DM on daily aspirin. How it is done: Light transmittance aggregometry. […] The area under the LTA curve (AUC) was chosen as the primary measure of aggregation because the AUC captures several features of the aggregometry curve that are each sensitive to the effects of aspirin: slope, maximal aggregation, and final aggregation. To standardize AUC measurements across individuals and visits the test duration was fixed at 12 minutes for epinephrine and six minutes for collagen, AA, and ADP.
Description of area under the curve (AUC) measurement. Using light transmittance aggregometry the percent aggregation is plotted over time to produce the upper curve similar to FIG. 21. The AUC is measured by the aggregometer over the duration of the test, which is fixed at 6 minutes for collagen and ADP and 12 minutes for epinephrine. Higher AUC values reflect higher maximal and residual aggregation, slope, and velocities.
In vitro aspirin. A stock solution of aspirin was created by dissolving acetylsalicylic acid (Sigma-Aldrich A5376) into DMSO and aliquots stored at −80 degrees Celsius. On the day of use, fresh aliquots were thawed, diluted in PBS, and stored at 4 degrees Celsius. […] The PRP was allowed to incubate with in vitro aspirin for 10 minutes at room temperature prior to the addition of agonist.

Test [3] concerns COX-1 activity. As to the kind of experiment: Serum thromboxane B2 ELISA. The test is classed as in vivo, human. The note with it: HV2; Final visit after 4 weeks 325 mg/day aspirin; range 0.1-2.0. How it is done: as §1
For orientation: ELISA stands for enzyme-linked immunosorbent assay.

For test [4], the system named is non COX-1 dependent platelet function (NCDPF). As to the kind of experiment: Platelet function score (PFS) in aspirin challenge study. The note with it: for mean difference in Pre vs. Post PFS: before vs 3 hrs after single 325 mg aspirin, p<0.0001; for Post PFS: after first 325 mg dose. The test is classed as in vivo, human. Here is the method: A group of healthy adult volunteers (HV1) were recruited and a defined set of platelet function measurements, as described below, were made before aspirin (“Pre”) and 3-hrs after (“Post”) a single 325 mg tablet of aspirin. Subsequently, subjects were returned for a final assessment (“Final”) 2 weeks after 325 mg/day aspirin. This dose of aspirin was chosen to ensure complete suppression of platelet COX-1 activity in each participant. The 3-hour timepoint was chosen to measure the maximal inhibitory effect of aspirin.
as §1, §2
Platelet Function Analyzer. PFA100 closure time with the use of the collagen/epinephrine cartridge was performed. […] Briefly, citrated whole blood was placed in the PFA100 chamber and blood was aspirated through an aperture in a collagen/epinephrine coated membrane. The amount of time (in seconds[s], up to a maximum of 300 s) until blood ceased to flow through the membrane aperture was recorded as the final result.
Platelet Function Score. […] A platelet function score was derived from a principal components analysis (PCA) of all platelet function measurements made in the HV1 cohort. PCA was chosen to quantify this biological factor. PCA is an unbiased, mathematical technique for reducing a collection of measurements down to a single “meta-measurement” that best describes the aggregate behavior of the set. For example, in the biological sciences, PCA can quantify population substructure in genome wide association studies, patterns of gene expression in microarray experiments, and metabolic pathways in metabolomic studies. In the present study, the input into the PCA was the following set of non-imputed measures from the HV1 cohort: the PFA100 closure time and the AUC from each concentration of ADP, epinephrine, and collagen LTA.

Test [5] concerns human promyelocytic cell line (HL60). The conditions noted are these: HL60, in vitro aspirin vs vehicle-only control; cited from earlier work.
Test [6] concerns RUNX1 P1 and total transcripts in purified platelets. Briefly: Platelet RNA RT-PCR for RUNX1 transcripts before and after aspirin exposure. The test is classed as in vivo, human. The note with it: healthy volunteers, before vs after aspirin exposure.
Method: Platelet purification and RNA isolation.
RNA was extracted from peripheral blood derived platelets using the miRvana miRNA Isolation Kit (Life Technologies) with acid-phenol chloroform (Life Technologies) separation. Due to the low concentration of available platelet RNA, concentration and integrity were assessed using the Agilent 2100 Bioanalyzer Pico chips (Agilent Technologies; Santa Clara, Calif.). The concentration was too low for accurate determination via standard spectrophotometric methods and for the Agilent Pico RIN algorithm to accurately determine a RIN quality score. As a result, quality was assessed by visualization of the Bioanalyzer lane curve. RNA samples with obvious 18S and 28S peaks, minimal degradation “noise” between peaks, and no large aberrant peaks above or below the 18S and 28S bands were selected for further analysis. […]
Concentration and integrity of available platelet RNA were assessed using Agilent 2100 Bioanalyzer Pico chips (Agilent Technologies; Santa Clara, Calif.). […] As a result, quality was assessed by visualization of the Bioanalyzer trace. […]
A loading test plate was run using 4 samples; 2 from each experimental group. […] Optimal loading would result in expression of our lowest targets of interest resulting in Cq values <35, abundant transcripts >18 and a minimal loss of low quantity samples to high RNA loading requirements. […]

Structures are written as SMILES.

As for `CC(=O)Oc1ccccc1C(=O)O` [aspirin, acetylsalicylic acid], the “AAA median % aggregation” value in test [1] (HV2 and DM subjects, Final visit on daily 325 mg aspirin, range 0-7%) is 3.0%. Further, the “effect of in vitro addition of aspirin on AAA” value in test [1] (in vitro aspirin 53 μM added after 325 mg oral dose, HV2 and DM) was “no further effect”. Further, the “COX-1 dependent platelet function, as assessed by AAA” value in test [1] (single 325 mg dose, all HV2 and DM subjects, AA 0.5 mM) is recorded as “effectively suppressed”. For the same compound, the “mean change aggregation with in vitro aspirin” value is recorded as −2.3% in test [2] (ADP 5 μM, CI −6.9-2.4%, p=0.3); 1.5% in test [2] (collagen 2 mg/ml, CI −6.9, 10.0, p=0.71); 2.0% in test [2] (epinephrine 0.5, CI −0.8-4.8%, p=0.2). Besides, the “serum thromboxane B2 mean concentration” value in test [3] came to 0.3 ng/mL. The “mean difference in Pre vs. Post PFS” value was 4.2 in test [4] (DM diabetics, 95% CI 3.6-4.8); 3.4 in test [4] (HV1 healthy volunteers, 95% CI 3.0-3.7); 4.8 in test [4] (HV2 healthy volunteers, 95% CI 4.5-5.2). Moreover, in test [4] (HV1, after two weeks of 325 mg/day aspirin, shifted higher, CI 0.1-0.8, p=0.01), the “mean difference Post and Final PFS” value came to 0.5. Further, the “mean difference between Post and Final PFS” value in test [4] (HV2, after four weeks of 325 mg/day aspirin, shift to higher PFS, CI 0.2-1.2, p=0.004) is given as 0.7. Further, the “Post PFS” value in test [4] (HV2 subjects that decreased their Final PFS) is given as 1.68; in test [4] (HV2 subjects that increased their Final PFS), −1.0. Further, the “expression of a P1-specific RUNX1 probe set” value in test [5] is recorded as “increased”. Moreover, the “expression of the remaining RUNX1 probe sets” value in test [5] is listed as “did not change”. Also, the “expression of two P2 RUNX1 probe sets” value in test [5] is given as “decreased”. Also, in test [6], the “change in total RUNX1 gene expression” value is reported as “minimal changes”. The “up (or down) regulation in P1 RUNX1 expression” value in test [6] was not above 5 fold.
